Consider one compound from patent US20180320177A1, “COMPOSITIONS AND METHODS FOR THE TREATMENT OF LIVER FIBROSIS” (UNIVERSITY OF CONNECTICUT, priority 2015, published 2018).

The structures appear in SMILES notation. Entries after “also recorded” stand apart in the source; their conditions may differ.

In this test the test system is CCl4-induced liver fibrosis. The experiment in a line: CCl4-induced liver fibrosis model in mice (Masson Trichrome, ALT, gross morphology). Format: in vivo, mouse. As for the experimental part: Animal Care: All animal care and experimental procedures were approved by the Institutional Animal Care and Use Committee at the University of Connecticut. Shp^−/− mice were described previously. Hmgb2^−/− mice were obtained from Dr. Stella Tsirka at Stony Brook University. C57BL/6J mice were purchased from Jackson Laboratory. All mice were maintained on a 12-h light/dark cycle with free access to food and water unless otherwise indicated. For CCl4 treatment, CCl4 (Sigma) was dissolved in corn oil and administered to mice at a dose of 850 μl/kg BW by intraperitoneal injection (IP) twice a week for 6 or 10 weeks with or without ICM. Age-matched control mice were treated with a corn oil vehicle. For CCl4+ICM treatment, mice were treated with CCl4 for 2 weeks and then ICM (Department of Pharmaceutical Sciences at UConn) was dissolved in PEG (Sigma) and treated with mice (10 mg/kg) every day for 4 or 8 weeks in combination with CCl4. To induce overexpression of HMGB2 in liver, AAV8-Hmgb2 or a control AAV8-GFP was given to mice by tail vein injection at a dose of 5×10^10 GC. To knockdown HMGB2 in mouse livers, AAV-shHmgb2 or a control AAV-shGFP was delivered to mice at a dose of 2×10^10 GC by tail vein injection. One week later, mice injected with AAVs were treated with CCl4 or CCl4 +ICM as described above and sacrificed. Livers were removed and snap-frozen in liquid nitrogen for RNA and protein analysis. For the collection of mouse fetal livers, pregnant female mice were sacrificed at E12.5, E15, and E18.5 and livers were removed from the embryos. Additionally, post-natal mouse livers were harvested at postnatal day P1 and P60.
Histology: Livers were fixed in 10% neutral buffered formalin and embedded in paraffin. Liver blocks were cut at 5 μm and the sections were stained with hematoxylin and eosin (H&E) and Masson's trichrome according to standard procedures.
ALT and AST: Alanine transaminase (ALT) and Aspartate aminotransferase (AST) were measured by Infinity ALT (GPT) Liquid Stable Reagent and AST (GOT) Liquid Stable Reagent according to the manufacturer's instructions (Thermo Scientific).
For CCl4 treatment, CCl4 (Sigma) was dissolved in corn oil and administered to mice at a dose of 850 µl/kg BW by intraperitoneal injection (IP) twice a week for 6 or 10 weeks with or without ICM. Age-matched control mice were treated with a corn oil vehicle. For CCl4+ICM treatment, mice were treated with CCl4 for 2 weeks and then ICM (Department of Pharmaceutical Sciences at UConn) was dissolved in PEG (Sigma) and treated with mice (10 mg/kg) every day for 4 or 8 weeks in combination with CCl4. To induced overexpression of HMGB2 in liver, AAV8-Hmgb2 or a control AAV8-GFP was given to mice by tail vein injection at a dose of 5×10^10 GC. […]

For `CC1(C)Oc2cc(O)ccc2C2C1=CCn1c(=O)n(-c3ccccc3)c(=O)n12` (stereo not shown) [ICM, inflachromene], the liver gross morphology result (ICM 10 mg/kg i.p. daily for 4 wks (FIG. 16B)) is “improved liver gross morphology”. Further, for the setting “ICM 10 mg/kg i.p. daily for 4 wks (FIG. 16C)”, the “plasma ALT levels” value is “decreased plasma ALT levels”. In addition, the “serum ALT” value (ICM (FIG. 5B)) is reported as “decreases”. The liver fibrosis entry (ICM in PEG 10 mg/kg i.p. daily for 4 wks, Masson Trichrome staining) was “decreases; also recorded: diminished liver fibrosis”.
